Results as given in US9073858B2, “Methods of targeted drug development” (priority 2010, dated 2015).
Read-outs that look alike come from different tables or passages of the source.

Key:
[1] = system: A549 cells; test: A549 Cell Proliferation Assay (MTT); format: cell-based; conditions: Homo sapiens, A549, 72 h, read-out: IC50 Value (μM) A549 Cells
[2] = system: caspase 3,7 activity in A431 cells; test: cells; conditions: for Emax at 8 µM / Emax at 16 µM: Homo sapiens, A-431, read-out: Total Apoptosis (increase in caspase 3,7 activity as percentage of the maximal response); for Ability to Synergize with Tarceva: caspase 3,7 activity, A431 cells
Source text: As described below, the capsase 3,7 assay uses the Promega Caspase-Glo 3/7 assay kit (cat no. G8092).
The Caspase-Glo® 3/7 Assay is a luminescent assay that measures caspase-3 and −7 activities in purified enzyme preparations or cultures of adherent or suspension cells. The assay provides a proluminescent caspase-3/7 substrate, which contains the tetrapeptide sequence, DEVD. This substrate is cleaved to release aminoluciferin, a substrate of luciferase used in the production of light. The Caspase-Glo® 3/7 Reagent has been optimized for caspase activity, luciferase activity and cell lysis. The addition of the single Caspase-Glo® 3/7 Reagent in an “add-mix-measure” format results in cell lysis, followed by caspase cleavage of the substrate and generation of a “glow-type” luminescent signal. The Caspase-Glo® 3/7 Assay is designed for use with multiwell plate formats, making it ideal for automated high-throughput screening of caspase activity or apoptosis.
Staurosporine was used as a positive control.
For the capsase 3,7 assay, cells were incubated for 5.5 hrs at 37° C., 5% CO2. The plate was removed from the incubator and equilibrated to room temperature. After 30 min, 25 μl Caspase 3/7 detection reagent (Promega Caspase-Glo 3/7 assay kit, cat no. G8092) was added to each well. The plate was covered with tin foil and shaken on a plate shaker at speed 4 for 3 min. The plate was then incubated for an additional 60 min at room temperature. Luminescence was detected using the PolarStar plate reader.
All statistical analyses were done using GraphPad Prism.
The assay was stopped after 6 hrs and the presence of caspase was measured using the Promega Caspase-Glo® 3/7 Assay.

[3] = system: HT-29 cells; test: HT-29 Cell Proliferation Assay (MTT); format: cell-based; conditions: for IC50: Homo sapiens
[4] = Stability on incubation with human liver microsomes (HLM); format: in vitro ADME; conditions: percentage left after incubation with human liver microsomes for 30 minutes
Procedure, shortened: (§1)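 Values are percent compound remaining after 30 min incubation with mouse or human liver microsomes.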

[5] = Stability on incubation with mouse liver microsomes (MLM); format: in vitro ADME; conditions: percentage left after incubation with mouse liver microsomes for 30 minutes
Procedure, shortened: as §1

[6] = system: EGF receptor-mediated cell proliferation; test: Combinatorial studies with known EGFR inhibitors, median effect analysis (MTT assay); conditions: for shift in Tykerb's dose-response curve: in combination with Tykerb; for DRI @ ED97: Dose Reduction Index
Description: Studies were initiated to evaluate the ability of various compounds disclosed herein to synergize with several compounds known to inhibit the function of the EGF receptor in a cell proliferation assay (MTT assay).
The EGFR inhibitor and AD4 compound dilutions were then mixed 1:1 in a 96 well plate. 50 μl of the mix was then added to the cell plate.
A shifting of the inhibitor curve to the left indicates an increase in the effectiveness of the AD4-compound.

[7] = system: H1975 cells; test: H1975 Cell Proliferation Assay (MTT); format: cell-based; conditions: Homo sapiens, NCI-H1975, 72 h, read-out: IC50 Value (μM) H1975 Cells
[8] = system: annexin V in A549 cells; conditions: for % Total Apoptosis: cells in early- and late-stage apoptosis; for % Relative to Reference Cpd.: reference 4.0 μM camptothecin or 1.0 μM staurosporin
Source text: Assays that measure apoptosis are utilized to determine whether or not compounds can induce programmed cell death in cancer cells. Annexin V is a protein that is used to detect apoptosis by binding to phosphatidylserine expressed on membranes of dead or dying cells. Fluorescently tagged with FITC, it can he used in conjunction with 7-aminoactinomycin D to determine the percentage of cells undergoing apoptosis via flow cytometry. Cells in early apoptosis will emit an FITC signal which will eventually be replaced by the far red 7-AAD signal that is associated with cell membrane permeability due to necrosis.
In brief, for the Annexin V Assay, compounds were added to cells plated in 6-well plates. Treated cells were incubated for up to 30 hours before addition of fluorescent cell marker probes that detect the presence of annexin V. The percentage of cells undergoing apoptosis and necrosis were determined by flow cytometry.
On day 2, working solutions of compounds (at 1000×) were prepared. To 2.0 ml media/well was added 2 μl 1000× compound diluted in 100% DMSO for final DMSO concentration of 0.1%. On day 3, plates were incubated for 30 hrs. […] Cells were collected by centrifugation at 300×g for 5 min.
Resuspended cells were stored at 4° C. in the dark, until flow cytometry analysis.
For flow cytometry analysis of the Annexin V Assay, sample acquisition was on the BD LSR II manufactured by BD Biosciences, San Jose, Calif. […] 10,000 events werer collected based on a stopping gate of forward scatter vs side scatter light. Acquisition was done through BD FACS DiVa software version 6.1.1 on high flow rate (60 μL/min). Calculations were as follows: Quadrant 3=lower left=live cells; Quadrant 4=lower right=early apoptosis; Quadrant 2=upper right=late apoptosis; Quadrant 1=upper left=dead cells. Percent (%)Total apoptosis was calculated as early (quadrant 4)+late (quadrant 2). Percent (%) ratio apoptosis was calculated as (experimental-No treatment/positive control)*100. All statistical analyses are done using GraphPad Prism or Microsoft Excel.

[9] = system: DNA fragmentation in A549 cells; test: DNA Fragmentation Assay (Cell Death Detection ELISA); format: cell-based; conditions: Caspase, DNA Fragmentation, Annexin-V
[10] = molecular target: T1, EGFR (Homo sapiens, UniProt P00533); test: EGFR in-cell Western (ICW) screening protocol; format: cell-based; design: unit not given here; conditions: listed as 1505
T1 construct: endogenous in cells; host or cells: A431 cells (ATCC CRL-1555)
T1 sequence (P00533 25-1210): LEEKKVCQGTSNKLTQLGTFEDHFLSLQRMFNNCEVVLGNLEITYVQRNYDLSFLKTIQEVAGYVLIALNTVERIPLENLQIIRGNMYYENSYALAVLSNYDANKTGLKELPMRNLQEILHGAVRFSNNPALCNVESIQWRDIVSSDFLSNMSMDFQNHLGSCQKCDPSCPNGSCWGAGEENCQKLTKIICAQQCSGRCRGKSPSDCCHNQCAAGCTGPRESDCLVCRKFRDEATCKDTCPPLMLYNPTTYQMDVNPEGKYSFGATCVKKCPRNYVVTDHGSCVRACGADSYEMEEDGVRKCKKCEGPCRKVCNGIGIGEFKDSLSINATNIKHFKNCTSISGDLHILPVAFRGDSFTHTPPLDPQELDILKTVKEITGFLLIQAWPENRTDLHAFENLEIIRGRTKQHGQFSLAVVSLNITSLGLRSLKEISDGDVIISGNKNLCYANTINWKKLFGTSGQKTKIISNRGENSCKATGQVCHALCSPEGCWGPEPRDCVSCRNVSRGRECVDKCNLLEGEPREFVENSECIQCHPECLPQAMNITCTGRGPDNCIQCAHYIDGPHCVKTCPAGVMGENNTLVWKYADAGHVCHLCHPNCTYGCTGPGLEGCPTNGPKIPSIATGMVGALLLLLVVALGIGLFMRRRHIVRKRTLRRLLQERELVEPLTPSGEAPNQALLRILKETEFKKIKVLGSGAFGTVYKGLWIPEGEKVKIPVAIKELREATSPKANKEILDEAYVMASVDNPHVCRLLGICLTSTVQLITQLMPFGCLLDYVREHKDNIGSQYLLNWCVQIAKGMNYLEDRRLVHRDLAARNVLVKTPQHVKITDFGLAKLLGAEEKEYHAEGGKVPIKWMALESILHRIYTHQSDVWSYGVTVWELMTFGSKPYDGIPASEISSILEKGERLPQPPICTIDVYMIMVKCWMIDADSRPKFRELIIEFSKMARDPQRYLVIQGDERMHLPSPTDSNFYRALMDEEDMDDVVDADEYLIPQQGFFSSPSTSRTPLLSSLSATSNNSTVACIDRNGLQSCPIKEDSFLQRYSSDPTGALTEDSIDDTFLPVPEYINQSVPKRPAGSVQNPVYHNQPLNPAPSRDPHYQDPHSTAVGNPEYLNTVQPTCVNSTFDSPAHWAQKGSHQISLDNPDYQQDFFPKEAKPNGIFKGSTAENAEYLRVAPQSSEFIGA
Procedure, shortened: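 Serum-starved cells treated with compound 4 h at 37 °C, then stimulated with EGF (20 or 0 ng/ml solution added) in its continued presence. In-cell Western on fixed cells: phospho-EGFR (800 channel) normalised to total EGFR (700 channel), % inhibition calculated against EGF-stimulated and unstimulated no-compound wells.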

[11] = system: MDBK line; test: MTT Cell Proliferation Assay, MDBK line; format: cell-based, bovine; conditions: 72 h; second value of A431/MDBK pair; read-out: MTT-72 h MDBK
Procedure, shortened: (§2)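 Cells plated overnight, then exposed 3 days at 37 °C, 5% CO2 to compound in growth medium with 0.5% FBS and 0.5% DMSO final (0.5% DMSO as control).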

[12] = molecular target: T2, EGF binding site, rat liver membranes (Rattus norvegicus, UniProt G3V6K6); test: Inhibition of [125I]EGF binding (NovaScreen EGF inhibitor assay)
T2 construct: Receptor source was rat liver membranes; tissue NovaScreen BioSciences; host or cells: rat liver membranes
T2 sequence (G3V6K6 25-1209): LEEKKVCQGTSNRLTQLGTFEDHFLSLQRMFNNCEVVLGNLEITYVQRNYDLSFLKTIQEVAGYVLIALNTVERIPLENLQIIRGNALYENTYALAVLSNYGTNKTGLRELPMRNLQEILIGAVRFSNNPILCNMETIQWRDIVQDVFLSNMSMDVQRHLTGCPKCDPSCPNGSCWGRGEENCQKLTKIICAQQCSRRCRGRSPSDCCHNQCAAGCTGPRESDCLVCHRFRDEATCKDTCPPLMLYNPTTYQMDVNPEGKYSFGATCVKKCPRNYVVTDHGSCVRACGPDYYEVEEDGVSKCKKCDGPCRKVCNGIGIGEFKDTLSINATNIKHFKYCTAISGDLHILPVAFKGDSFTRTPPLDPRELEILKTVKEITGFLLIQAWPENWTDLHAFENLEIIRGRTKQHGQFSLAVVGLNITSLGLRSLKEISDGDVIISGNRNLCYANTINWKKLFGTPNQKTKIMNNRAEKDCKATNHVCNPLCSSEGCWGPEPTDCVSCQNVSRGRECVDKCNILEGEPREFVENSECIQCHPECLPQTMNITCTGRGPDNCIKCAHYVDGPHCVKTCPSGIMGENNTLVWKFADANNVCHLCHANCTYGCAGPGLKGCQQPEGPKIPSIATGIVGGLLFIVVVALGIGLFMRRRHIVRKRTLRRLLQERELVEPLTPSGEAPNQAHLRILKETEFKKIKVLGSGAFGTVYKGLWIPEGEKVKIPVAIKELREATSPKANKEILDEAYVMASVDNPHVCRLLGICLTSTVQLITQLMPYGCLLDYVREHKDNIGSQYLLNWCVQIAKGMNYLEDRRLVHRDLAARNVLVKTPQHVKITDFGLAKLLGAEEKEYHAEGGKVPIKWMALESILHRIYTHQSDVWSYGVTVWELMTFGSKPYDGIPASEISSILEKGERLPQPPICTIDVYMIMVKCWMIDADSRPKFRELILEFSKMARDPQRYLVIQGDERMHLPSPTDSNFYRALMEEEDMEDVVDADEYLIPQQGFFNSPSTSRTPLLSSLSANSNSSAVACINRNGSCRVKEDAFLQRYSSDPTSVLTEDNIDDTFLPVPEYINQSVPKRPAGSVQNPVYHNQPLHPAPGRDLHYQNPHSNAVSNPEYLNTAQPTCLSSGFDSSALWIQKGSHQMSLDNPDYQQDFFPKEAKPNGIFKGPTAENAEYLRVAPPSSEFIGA
Description: Identified compounds, representing various pharmacaphore models, were tested for ability to inhibit EGFR at 25 μM.
AD4-compounds were identified using pharmacophore models (see Example 3) and then were docked with the binding site of EGFR (SEQ ID NO: 1) that is recognized by defined CDRs of cetuximab.
Receptor source was rat liver membranes. The radioligand was [^125I]EGF ([…]) at a final ligand concentration of 0.36 nM. A non-specific determinant was used as EGF—[100 nM]. The reference compound and positive control was EGF. Reactions were carried out in 10 mM HEPES (pH 7.4) containing 0.1% BSA at 25° C. for 60 minutes. The reaction was terminated by rapid vacuum filtration onto glass fiber filters. Radioactivity trapped onto the filters was determined and compared to control values to ascertain any interactions of test compounds with the EGF binding site. The EGF inhibitor assays were modified from, for example, Mukku (1984) J. Biol. Chem. 259, 6543-6546; Duh et al. (1990) World J. Surgery 14, 410-418; Lokeshwar et al. (1989) J. Biol. Chem. 264(32), 19318-19326.

[13] = system: epithelial carcinoma A431 cell line; test: MTT Cell Proliferation Assay, A431 cell line; format: cell-based; conditions: 72 h
Procedure, shortened: as §2

[14] = HT-29, 72 h, read-out: IC50 Value (μM) HT-29 Cells
[15] = Combination Index with Iressa at 90% inhibition
[16] = Combination Index with Tykerb at 90% inhibition
[17] = read-out: IC50 Iressa + Compound (nM)

Row | Structure (SMILES) | IC50 [1] | Emax at 8 µM [2] | Emax at 16 µM [2] | Ability to Synergize with Tarceva [2] | IC50 [3, 14] | HLM % Remaining@ 30 Min [4] | MLM % Remaining@ 30 Min [5] | CI @ ED90 [6, 15] | CI @ ED90 [6, 16] | IC50 [7] | further results
1 | CCc1cc(Cl)cnc1NC(c1cccc(Cl)c1Cl)c1ccc2cccnc2c1O (stereo not shown) [AD4-13215] | 0.16 µM | 20% | 27% | ++ (0.7-0.85 Moderate synergism) | 0.97 µM |  |  |  |  |  | 
2 | Cc1cccc(NC(c2ccc(C(F)(F)F)cc2)c2ccc3cccnc3c2O)n1 (stereo not shown) [AD4-10628] |  |  |  |  |  | 45% | 3% | 0.91 | 0.55 |  | synergy with Tykerb ([6]; based on CI value): significant synergy; IC50 [6, 17]: 93 nM
3 | Cc1nc(NC(c2cc(Cl)ccc2Cl)c2ccc3cccnc3c2O)c(Cl)cc1Cl (stereo not shown) [AD4-13220] | 0.12 µM | 32% | 40% | + (0.85-0.9 Slight synergism) | 3.3 µM |  |  |  |  |  | 
4 | Cc1cc(Cl)cnc1NC(c1cccc(Cl)c1Cl)c1ccc2cccnc2c1O (stereo not shown) [AD4-13147] | 0.11 µM |  |  |  | 0.77 µM | 98% | 44% |  |  | 0.29 µM | % Total Apoptosis ([8]; 1 μM, A549 cells): 29%; % Total Apoptosis ([8]; 10 μM, A549 cells): 28%
5 | Oc1c(C(Nc2cc(Cl)c(Cl)cn2)c2ccc(F)cc2Cl)ccc2cccnc12 (stereo not shown) [AD4-13185] | 0.18 µM |  |  |  | 1.2 µM | 98% | 57% |  |  | 0.23 µM | apoptosis, share of the cell population ([8]; 1 μM, A549 cells, FIG. 16B): greater than 50%; % Total Apoptosis ([8]; 1 μM, A549 cells): 42%; % Relative to Reference Cpd. ([8]; 1 μM): 161%; late apoptosis, share of the cell population ([8]; 10 μM, A549 cells, FIG. 16B): up to 20%; % Total Apoptosis ([8]; 10 μM, A549 cells): 30%; % Relative to Reference Cpd. ([8]; 10 μM): 202%; apoptotic activity [9]: increased apoptotic activity
6 | Cc1ccc2c(C)nc(Nc3nc(-c4ccccc4C)cc(=O)[nH]3)nc2c1 [AD4-11511] |  |  |  |  |  | 6% | 6% | 0.93 | 0.87 |  | shift in Tykerb's dose-response curve [6]: leftward shift (i.e., greater potency); IC50 ([6]; read-out: IC50 Iressa + Compound, Iressa combined with the compound at a fixed constant ratio, MTT assay): 245 nM; IC50 ([6]; read-out: IC50 Tykerb + Compound, Tykerb combined with the compound at a fixed constant ratio, MTT assay): 118 nM
7 | C#Cc1cccc(Nc2ncnc3cc(OCCOC)c(OCCOC)cc23)c1 [Tarceva, reference compound] |  |  |  |  |  |  |  |  |  |  | synergy with Tykerb [6]: did not produce synergistic effects; HT-29 Cell Proliferation Assay Results (IC50) [3]: No Effect; IC50 ([3]; HT-29, 72 h, read-out: IC50, Comparison of Incubation Times in HT-29 Cell Proliferation Assay): 15 µM; IC50 ([3]; HT-29, read-out: IC50 from dose-response curves of FIG. 11, HT-29 cells): 12 µM
8 | COc1ccc(C(Nc2cc(C)ccn2)c2ccc3cccnc3c2O)cc1O (stereo not shown) [AD4-1505] |  |  |  |  |  |  |  | 0.59 | 0.10 |  | ICW Screen ([10]; initial screen): 55.71; ICW Re-Test ([10]; re-test): 47.05; IC50 [11]: 9330 nM; inhibition of epidermal growth factor binding [12]: inhibitor of epidermal growth factor binding to its receptor; DRI @ ED97 ([6]; effect of the test compound on Iressa): 78; DRI @ ED97 ([6]; effect of the test compound on Tykerb): 203; synergy with Iressa ([6]; based on CI value): shows synergy; synergy with Tykerb ([6]; based on CI value): significant synergy; shift in Tykerb's dose-response curve [6]: leftward shift (i.e., greater potency); IC50 [6, 17]: 133 nM; IC50 ([13]; first value of A431/MDBK pair, read-out: MTT-72 h A431): 8360 nM; MTT-72 h A431/MDBK (ratio) ([13]; value in brackets, numerically MDBK value over A431 value, listed as 1505): 1.12
9 | Cc1ccnc(NC(c2cc(Cl)cc(Cl)c2Cl)c2ccc3cccnc3c2O)c1 (stereo not shown) [AD4-13072] | 0.15 µM | 38% | 49% | +++ (0.3-0.7 Synergism) |  |  |  |  |  | 0.29 µM | 
10 | Oc1c(C(Nc2ncc(F)cc2F)c2cc(Cl)cc(Cl)c2Cl)ccc2cccnc12 (stereo not shown) [AD4-13181] | 0.12 µM | 43% | 47% | ++ (0.7-0.85 Moderate synergism) |  |  |  |  |  | 0.58 µM | 
